In brackets after ≈: the same amount, converted by molar mass.

Series [1] relates to Mycobacterium tuberculosis. Briefly: microbe, parasite or virus in culture. The note with it: H37Rv ATCC 27294, 672 h.
Description: Antimycobacterial activity against Mycobacterium tuberculosis H37Rv ATCC 27294 after 28 days by agar dilution method
Series [2] can be described thus: Lipophilicity, log P of the compound. In kind it is physicochemical. As to conditions: octanol/water.
A short description of series [3]: Cytotoxicity against HEK293T cells at 50 ug/ml after 72 hrs by MTT assay. The format is cell-based, HEK-293T. As to conditions: human, read-out: INH. (In general: Formazan colour is commonly taken as a measure of viable cells.)
Series [4] in a line: Therapeutic index, ratio of inhibition of HEK293T cells to MIC for Mycobacterium tuberculosis H37Rv ATCC 27294. The format is cell-based, HEK-293T. As to conditions: human, read-out: TI.

For `CC[C@@H](CO)NCCN[C@@H](CC)CO` [ETHAMBUTOL], in series [1], the MIC came to 3.13 µg/mL (≈ 15.3 µM).
As a reminder, the logP is a log measure of how a compound divides between an organic and an aqueous phase. A low value points to lower lipophilicity. On to `Cc1cccc(-c2cc3c(ccc4oc5ccccc5c43)o2)c1`, for which, in series [2], the logP was 4.53. In series [3], the cytotoxicity at 72 h, 50 ug/ml is 56.8%. This compound also had an MIC in series [1] of 12.5 µg/mL (≈ 41.9 µM).
`NC(=O)c1cnccn1` [PYRAZINAMIDE] gave an MIC in series [1] of 50 µg/mL (≈ 406 µM).
As for `COc1ccc(-c2cc3c(ccc4oc5ccccc5c43)o2)c(C)c1`, the logP in series [2] was determined as 4.4. In series [4], the selectivity ratio is > 10. For the same compound, in series [3], the cytotoxicity at 72 h, 50 ug/ml came out at 32.1%. Also, the MIC in series [1] was determined as 3.12 µg/mL (≈ 9.5 µM).
`Cc1ccc(-c2cc3c(ccc4oc5ccccc5c43)o2)cc1`: the logP in series [2] was 4.53. The cytotoxicity at 72 h, 50 ug/ml in series [3] worked out at 21.6%. Further, the MIC in series [1] is 6.25 µg/mL (≈ 20.9 µM).
In series [2], `CCCCCCc1cc2c(ccc3oc4ccccc4c32)o1` showed a logP of 4.8. Further, the cytotoxicity at 72 h, 50 ug/ml in series [3] was 32.1%. Also, the MIC in series [1] is 6.25 µg/mL (≈ 21.4 µM).
For `c1ccc2c(c1)oc1ccc3oc(-c4ccsc4)cc3c12`, in that order: 3.97, 23.1% and 50 µg/mL (≈ 172 µM).
In turn, `Fc1ccc(-c2cc3c(ccc4oc5ccccc5c43)o2)c(F)c1` gave a logP in series [2] of 4.36. Moreover, in series [3], the cytotoxicity at 72 h, 50 ug/ml was 34.1%. Further, the MIC in series [1] amounted to 50 µg/mL (≈ 156 µM).
For the compound `FC(F)(F)Oc1ccc(-c2cc3c(ccc4oc5ccccc5c43)o2)cc1`, the lipophilicity (logP) in series [2] was 5.57. In series [3], the cytotoxicity at 72 h, 50 ug/ml was found to be 72.1%. This compound had an MIC in series [1] of 50 µg/mL (≈ 136 µM).
`CCCCCc1ccc(-c2cc3c(ccc4oc5ccccc5c43)o2)cc1` yielded a logP in series [2] of 5.78. In addition, the cytotoxicity at 72 h, 50 ug/ml in series [3] was determined as 40.2%. This compound had an MIC in series [1] of 12.5 µg/mL (≈ 35.3 µM).
`NNC(=O)c1ccncc1` [ISONIAZID] had an MIC in series [1] of 0.1 µg/mL (≈ 0.729 µM).
Compound `COc1ccc(-c2cc3c(ccc4oc5ccccc5c43)o2)cc1` displayed a logP in series [2] of 3.92. Further, the cytotoxicity at 72 h, 50 ug/ml in series [3] was 13.8%. Moreover, in series [1], the MIC turned out to be 50 µg/mL (≈ 159 µM).
On to `c1ccc(-c2cc3c(ccc4oc5ccccc5c43)o2)cc1`, for which, in series [2], the logP amounted to 4.04. In series [3], the cytotoxicity at 72 h, 50 ug/ml came to 32.1%. Also, in series [1], the MIC amounted to 6.25 µg/mL (≈ 22 µM).

The record behind these values is ChEMBL document CHEMBL2424559, “Design, synthesis and antitubercular evaluation of novel 2-substituted-3H-benzofuro benzofurans via palladium-copper catalysed Sonagashira coupling reaction” (Bioorg Med Chem Lett, 2013).
